In patent US9345793B2, “Compounds for binding to the platelet specific glycoprotein IIB/IIIA and their use for imaging of thrombi” (PIRAMAL IMAGING SA, priority 2011, dated 2016):
Read-outs that look alike come from different tables or passages of the source.

Biological target: human GPIIb/IIIa receptor (Homo sapiens (Human), UniProt P05106+P08514)
Assay: Affinity assay: displacement of tritiated reference compound from immobilized purified GPIIb/IIIa
Type: binding
Protocol: Affinity assay: In the first step human GPIIb/IIIa purified from human platelets was immobilized on a 96-well solid plate. After 48 hours the plates were washed and the unspecific binding sites were blocked with Roti®-Block. 2. In the next step, the plates were simultaneously incubated with a tritium labeled known GPIIb/IIIa binder (^3H) mixed with increasing concentrations of the novel small molecule compounds (inhibitor, ^19F). The higher the affinity of the inhibitor, the lower the bound fraction of the tritiated known GPIIb/IIIa binder (^3H) was. The fraction of tritiated compound (^3H), which is not displaced by inhibitor, was measured in a microplate scintillation counter.
Purified human glycoprotein IIb/IIIa (20 mM Tris-HCl, 0.1 M NaCl, 0.1% Triton X-100, 1 mM CaCl2, 0.05% NaN3, 50% Glycerol, pH 7.4) was purchased from Enzyme Research Laboratories Inc. (South Bend, Ind.). The GPIIb/IIIa receptor was diluted in phosphate-buffered saline (Dulbecco's Phosphate Buffered Saline (D-PBS(+)) with calcium and magnesium, GIBCO®, Invitrogen) with 0.01% bovine serum albumin (albumin from bovine serum—lyophilized powder, ≧96%, Sigma).
The GPIIb/IIIa receptor was immobilized 48 hours at least (100 μL per well, 48 to maximum 96 hours) on a 96-well solid plate (Immuno Plate MaxiSorp™, Nunc, Roskilde, Denmark) at 277 K to 280 K and at a concentration of 0.1 μg per well to 1 μg per well. As negative control one row of the plate (n=8) was incubated just with 2% bovine serum albumin (200 μper well, albumin from bovine serum—lyophilized powder, […], Sigma, diluted in D-PBS(+)). After washing three times with the wash buffer (230 μL per well, Dulbecco's Phosphate Buffered Saline (D-PBS (−)) contains no calcium or magnesium, GIBCO®, Invitrogen) residual exposed plastic and unspecific binding sites were blocked by incubating the plate with a special blocking solution (200 μL per well, Roti®-Block, Carl Roth GmbH Co KG, Karlsruhe) containing 2% bovine serum albumin (Albumin from bovine serum—lyophilized powder, ≧96%, Sigma) 1 hour at room temperature.
After washing three times with the wash buffer 50 μL of tritiated reference compound (60 nM, ^3H-labeled compound) and 50 μL of novel compound (inhibitor, ^19F) were simultaneously added to each well and incubated for 1 hour at room temperature. Several concentrations of each novel inhibitor (0.1, 1, 2, 5, 10, 20 50, 100, 200, 500, 1000, 2000, 5000, 10000 and 20000 nM) were investigated. At each concentration of inhibitor a fourfold determination was performed.
The maximum value of tritiated reference compound was determined without addition of inhibitor (n=8). To exclude unspecific binding of ^3H-reference compound wells without glycoprotein receptors were used as negative controls (n=12, identically treated just without GP IIb/IIIa receptors).
After one hour the plate was washed three times with phosphate-buffered saline (200 μL per well, Dulbecco's Phosphate Buffered Saline (D-PBS(+)), GIBCO®, Invitrogen). Following 140 μL of liquid scintillation cocktail (MicroScint™ 40 aqueous, Perkin Elmer) was added to each well. After 15 min at room temperature the plates were measured at the microplate scintillation counter (TopCount NXT v2.13, Perkin Elmer, Packard Instrument Company).
In the first step human glycoprotein IIb/IIIa, which is purified from human platelets, was immobilized on a 96-well solid plate. After 48 hours at least the plates were washed and the unspecific binding sites were blocked with Roti®-Block. In the next step, the plates were simultaneously incubated with a tritium labeled reference compound and the novel small molecule compound (inhibitor). The higher the affinity of the inhibitor, the smaller is the bound fraction of reference compound. The fraction of tritiated reference compound, which is not displaced by inhibitor, was measured at a microplate scintillation counter.

[1] = 19F compounds vs 60 nM 3H-labeled reference compound, 1 hour at room temperature, read-out: IC50 human
[2] = values repeated beside the 18F-compound, read-out: IC50 human (corresponding 19F-compound, Table 2)

Chain of human GPIIb/IIIa receptor (P08514 32-887): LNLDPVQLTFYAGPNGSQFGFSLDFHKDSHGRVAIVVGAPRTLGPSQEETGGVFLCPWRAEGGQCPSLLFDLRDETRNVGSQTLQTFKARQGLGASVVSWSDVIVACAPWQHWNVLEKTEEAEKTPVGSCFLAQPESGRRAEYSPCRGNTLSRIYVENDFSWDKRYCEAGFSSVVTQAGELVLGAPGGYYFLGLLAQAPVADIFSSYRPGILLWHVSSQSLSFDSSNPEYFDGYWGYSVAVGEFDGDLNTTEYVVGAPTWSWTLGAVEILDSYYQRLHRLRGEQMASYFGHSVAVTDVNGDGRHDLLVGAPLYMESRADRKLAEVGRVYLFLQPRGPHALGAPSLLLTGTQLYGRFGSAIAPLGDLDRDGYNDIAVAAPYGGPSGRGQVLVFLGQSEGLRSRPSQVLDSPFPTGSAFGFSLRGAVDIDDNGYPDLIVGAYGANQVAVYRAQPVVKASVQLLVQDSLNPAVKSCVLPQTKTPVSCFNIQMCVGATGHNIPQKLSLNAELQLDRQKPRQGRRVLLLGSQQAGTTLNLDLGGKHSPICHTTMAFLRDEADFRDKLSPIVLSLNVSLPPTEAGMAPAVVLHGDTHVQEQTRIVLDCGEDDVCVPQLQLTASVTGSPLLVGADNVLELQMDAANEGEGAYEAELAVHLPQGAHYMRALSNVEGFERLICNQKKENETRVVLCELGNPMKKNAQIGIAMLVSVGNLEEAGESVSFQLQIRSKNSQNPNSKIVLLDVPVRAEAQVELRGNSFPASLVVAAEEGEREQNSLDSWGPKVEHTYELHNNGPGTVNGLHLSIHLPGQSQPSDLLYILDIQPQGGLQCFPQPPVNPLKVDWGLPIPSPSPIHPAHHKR
Chain of human GPIIb/IIIa receptor (P08514 891-1039 partner): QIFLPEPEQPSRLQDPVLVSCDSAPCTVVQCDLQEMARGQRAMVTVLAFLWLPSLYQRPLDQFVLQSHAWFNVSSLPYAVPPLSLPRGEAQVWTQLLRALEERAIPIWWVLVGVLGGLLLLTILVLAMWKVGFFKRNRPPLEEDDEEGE
Chain of human GPIIb/IIIa receptor (P05106 27-788): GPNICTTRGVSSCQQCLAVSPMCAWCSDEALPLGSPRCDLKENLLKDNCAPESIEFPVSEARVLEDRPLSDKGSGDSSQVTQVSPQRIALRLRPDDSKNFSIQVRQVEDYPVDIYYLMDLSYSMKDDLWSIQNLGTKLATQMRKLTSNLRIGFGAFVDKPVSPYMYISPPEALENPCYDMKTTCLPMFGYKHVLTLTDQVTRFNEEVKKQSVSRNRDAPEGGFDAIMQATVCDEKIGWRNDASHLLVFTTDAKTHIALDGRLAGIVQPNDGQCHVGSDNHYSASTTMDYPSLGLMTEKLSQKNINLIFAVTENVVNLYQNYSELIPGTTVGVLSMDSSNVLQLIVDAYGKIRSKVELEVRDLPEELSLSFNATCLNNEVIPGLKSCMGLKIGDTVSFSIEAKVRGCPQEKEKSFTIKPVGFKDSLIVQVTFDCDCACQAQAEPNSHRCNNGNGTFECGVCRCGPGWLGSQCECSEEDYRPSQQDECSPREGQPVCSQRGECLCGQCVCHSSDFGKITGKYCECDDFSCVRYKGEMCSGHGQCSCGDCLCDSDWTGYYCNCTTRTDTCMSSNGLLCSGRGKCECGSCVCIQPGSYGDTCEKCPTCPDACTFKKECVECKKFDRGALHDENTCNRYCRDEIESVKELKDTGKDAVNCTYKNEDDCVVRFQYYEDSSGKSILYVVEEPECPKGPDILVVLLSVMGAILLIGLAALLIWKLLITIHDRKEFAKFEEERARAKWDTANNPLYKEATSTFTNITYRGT

| IC50 [1] [nM] | IC50 [2] [nM] | Structure (SMILES) |
| --- | --- | --- |
| 7 |  | O=C(O)C[C@H](NC(=O)[C@@H]1CCCN(C(=O)CCC2CCNCC2)C1)c1cncc(C=Cc2cccc(OCCF)c2)c1 (mixture of isomers) [Example 20, (E/Z)(3S)-3-(5-{2-[3-(2-Fluoroethoxy)phenyl]ethenyl}pyridin-3-yl)-3-[({(3R)-1-[3-(piperidin-4-yl)propanoyl]piperidin-3-yl}carbonyl)amino]propanoic acid] |
| 8 |  | N#Cc1cc(COc2cncc([C@@H](CC(=O)O)NC(=O)[C@H]3CCCN(C(=O)CCC4CCNCC4)C3)c2)ccc1F (stereo in doubt) [Example 12, (3R)-3-{5-[(3-Cyano-4-fluorobenzyl)oxy]pyridin-3-yl}-3-[({(3S)-1-[3-(piperidin-4-yl)propanoyl]piperidin-3-yl}carbonyl)amino]propanoic acid] |
| 29 | 29 | O=C(O)C[C@H](NC(=O)[C@@H]1CCCN(C(=O)CCC2CCNCC2)C1)c1ccc(OCCF)cc1 [Example 2, (3S)-3-[4-(2-Fluoroethoxy)phenyl]-3-[({(3R)-1-[3-(piperidin-4-yl)propanoyl]piperidin-3-yl}carbonyl)amino]propanoic acid] |
| 84 |  | O=C(O)C[C@H](NC(=O)[C@@H]1CCCN(C(=O)CCC2CCNCC2)C1)c1cccc(OCCOCCOCCF)c1 [Example 4, (3S)-3-(3-{2-[2-(2-Fluoroethoxy)ethoxy]ethoxy}phenyl)-3-[({(3R)-1-[3-(piperidin-4-yl)propanoyl]piperidin-3-yl}carbonyl)amino]propanoic acid] |
| 16 |  | O=C(O)C[C@H](NC(=O)[C@@H]1CCCN(C(=O)CCC2CCNCC2)C1)c1cncc(OCCOCCOCCF)c1 [Example 5, (3S)-3-(5-{2-[2-(2-Fluoroethoxy)ethoxy]ethoxy}pyridine-3-yl)-3-[({(3R)-1-[3-(piperidin-4-yl)propanoyl]piperidin-3-yl}carbonyl)amino]propanoic acid] |
| 16 |  | O=C(O)C[C@H](NC(=O)[C@@H]1CCCN(C(=O)CCC2CCNCC2)C1)c1cncc(-c2cccc(OCCF)c2)c1 [Example 6, (3S)-3-{5-[3-(2-Fluoroethoxy)phenyl]pyridin-3-yl}-3-[({(3R)-1-[3-(piperidin-4-yl)propanoyl]piperidin-3-yl}carbonyl)amino]propanoic acid] |
| 14 |  | O=C(O)C[C@H](NC(=O)[C@@H]1CCCN(C(=O)CCC2CCNCC2)C1)c1cncc(-c2ccccc2OCCF)c1 [Example 8, (3S)-3-{5-[2-(2-Fluoroethoxy)phenyl]pyridin-3-yl}-3-[({(3R)-1-[3-(piperidin-4-yl)propanoyl]piperidin-3-yl}carbonyl)amino]propanoic acid] |
| 21 | 21 | N#Cc1cc(-c2cncc([C@H](CC(=O)O)NC(=O)[C@@H]3CCCN(C(=O)CCC4CCNCC4)C3)c2)ccc1F [Example 9, (3S)-3-[5-(3-Cyano-4-fluorophenyl)pyridin-3-yl]-3-[({(3R)-1-[3-(piperidin-4-yl)propanoyl]piperidin-3-yl}carbonyl)amino]propanoic acid] |
| 15 |  | N#Cc1ccc(-c2cncc([C@H](CC(=O)O)NC(=O)[C@@H]3CCCN(C(=O)CCC4CCNCC4)C3)c2)cc1F [Example 10, (3S)-3-[5-(4-Cyano-3-fluorophenyl)pyridin-3-yl]-3-[({(3R)-1-[3-(piperidin-4-yl)propanoyl]piperidin-3-yl}carbonyl)amino]propanoic acid] |
| 14 |  | O=C(O)C[C@H](NC(=O)[C@@H]1CCCN(C(=O)CCC2CCNCC2)C1)c1cncc(-c2ccc(F)c([N+](=O)[O-])c2)c1 [Example 11, (3S)-3-[5-(4-Fluoro-3-nitrophenyl)pyridin-3-yl]-3-[({(3R)-1-[3-(piperidin-4-yl)propanoyl]piperidin-3-yl}carbonyl)amino]propanoic acid] |
| 7 |  | N#Cc1ccc(COc2cncc([C@H](CC(=O)O)NC(=O)[C@@H]3CCCN(C(=O)CCC4CCNCC4)C3)c2)cc1F [Example 13, (3S)-3-{5-[(4-Cyano-3-fluorobenzyl)oxy]pyridin-3-yl}-3-[({(3R)-1-[3-(piperidin-4-yl)propanoyl]piperidin-3-yl}carbonyl)amino]propanoic acid] |
| 15 |  | N#Cc1ccc([C@H](CC(=O)O)NC(=O)[C@@H]2CCCN(C(=O)CCC3CCNCC3)C2)cc1F [Example 14, (3S)-3-(4-Cyano-3-fluorophenyl)-3-[({(3R)-1-[3-(piperidin-4-yl)propanoyl]piperidin-3-yl}carbonyl)amino]propanoic acid] |
| 5 |  | O=C(O)C[C@H](NC(=O)[C@@H]1CCCN(C(=O)CCC2CCNCC2)C1)c1cncc(C#Cc2ccc(OCCF)cc2)c1 [Example 15, (3S)-3-(5-{[4-(2-Fluoroethoxy)phenyl]ethynyl}pyridin-3-yl)-3-[({(3R)-1-[3-(piperidin-4-yl)propanoyl]piperidin-3-yl}carbonyl)amino]propanoic acid] |
| 6 |  | O=C(O)C[C@H](NC(=O)[C@@H]1CCCN(C(=O)CCC2CCNCC2)C1)c1cncc(C#Cc2cccc(OCCF)c2)c1 [Example 16, (3S)-3-(5-{[3-(2-Fluoroethoxy)phenyl]ethynyl}pyridin-3-yl)-3-[({(3R)-1-[3-(piperidin-4-yl)propanoyl]piperidin-3-yl}carbonyl)amino]propanoic acid] |
| 35 |  | O=C(O)C[C@H](NC(=O)[C@@H]1CCCN(C(=O)CCC2CCNCC2)C1)c1cc(F)cc(-c2ccc(OCCF)cc2)c1 [Example 17, (3S)-3-[5-Fluoro-4′-(2-fluoroethoxy)biphenyl-3-yl]-3-[({(3R)-1-[3-(piperidin-4-yl)propanoyl]piperidin-3-yl}carbonyl)amino]propanoic acid] |
| 3 | 3 | O=C(O)C[C@H](NC(=O)[C@@H]1CCCN(C(=O)CCC2CCNCC2)C1)c1cncc(CCc2ccc(OCCF)cc2)c1 [Example 18, (3S)-3-(5-{2-[4-(2-Fluoroethoxy)phenyl]ethyl}pyridin-3-yl)-3-[({(3R)-1-[3-(piperidin-4-yl)propanoyl]piperidin-3-yl}carbonyl)amino]propanoic acid] |
| 3 | 3 | O=C(O)C[C@H](NC(=O)[C@@H]1CCCN(C(=O)CCC2CCNCC2)C1)c1cncc(CCc2cccc(OCCF)c2)c1 [Example 19, (3S)-3-(5-{2-[3-(2-Fluoroethoxy)phenyl]ethyl}pyridin-3-yl)-3-[({(3R)-1-[3-(piperidin-4-yl)propanoyl]piperidin-3-yl}carbonyl)amino]propanoic acid] |
